# Laboratory results reported in patent publication US20160271118A1, “PHARMACEUTICAL COMPOSITIONS COMPRISING ANTIBACTERIAL AGENTS” (priority 2013, published 2016).
# Read-outs that look alike come from different tables or passages of the source.
# Assays:
# Format in all cases: cell-based, Acinetobacter baumannii
# [1] = tested on: A. baumannii NCTC 13301; assay: Broth microdilution MIC (CLSI), A. baumannii NCTC 13301; details: for MIC: Acinetobacter baumannii, NCTC13301; for MIC of Sulbactam in combination of compound: compound at 4 mcg/ml; for MIC of Cefepime in combination of compound: compound at 8 mcg/ml
# Procedure: (§1) The broth microdilution Minimum Inhibitory Concentration (MIC) studies were conducted as per the CLSI recommendations (Clinical and Laboratory Standards Institute (CLSI), Performance Standards for Antimicrobial Susceptibility Testing, 20th Informational Supplement, M 100-S20, Volume 30, No. 1, 2010). The media utilized was Brain Heart Infusion broth (BD, USA). In brief, 50 mcl of serial double dilutions of the antibacterial agents in Brain Heart Infusion media were dispensed in 96 well microtiter plate. 50 mcl of culture suspension was added to each pre dispensed drug dilution such that the final bacterial inoculum density was 2-8×10^5 CFU/ml. The plates were incubated for 20-24 hours at 35±2° C. and observed visually for growth or no growth based on the turbidity. Three specific compounds generally represented by a general Formula (I) were used and are as follows: • 1. (2S,5R)-7-oxo-N-[(3S)-pyrrolidin-3-yloxy]-6-(sulfooxy)-1,6-diazabicyclo[3.2.1]octane-2-carboxamide (Compound A),
# (§2) The results of antibacterial activity of various compounds when used alone and in combinations according to the inventions are shown in Tables 1 and 2 respectively. The strains of A. baumannii used for the study were those which produced carbapenem hydrolyzing class D beta-lactamase enzymes (OXA 23, OXA 24 or OXA 27). […] In general, the MIC values of Sulbactam and Cefepime reduced when these were combined with Compounds A, B and C.
# [2] = tested on: A. baumannii NCTC 13302; assay: Broth microdilution MIC (CLSI), A. baumannii NCTC 13302; details: for MIC: Acinetobacter baumannii, NCTC13302; for MIC of Sulbactam in combination of compound: compound at 4 mcg/ml; for MIC of Cefepime in combination of compound: compound at 8 mcg/ml
# Procedure: as §1, §2
# [3] = tested on: A. baumannii NCTC 13304; assay: Broth microdilution MIC (CLSI), A. baumannii NCTC 13304; details: for MIC: Acinetobacter baumannii, NCTC13304; for MIC of Sulbactam in combination of compound: compound at 4 mcg/ml; for MIC of Cefepime in combination of compound: compound at 8 mcg/ml
# Procedure: as §1, §2
# [4] = tested on: A. baumannii; assay: Broth microdilution MIC (CLSI), A. baumannii strains overall; details: used alone; for MIC: Acinetobacter baumannii, A. baumannii strains producing OXA 23, OXA 24 or OXA 27
# Procedure: as §1, §2
# [5] = compound alone, A. baumannii NCTC 13301 (OXA 51, OXA 23), read-out: MIC
# [6] = A. baumannii NCTC 13301 (OXA 51, OXA 23)
# [7] = compound alone, A. baumannii NCTC 13302 (OXA 51, OXA 24), read-out: MIC
# [8] = A. baumannii NCTC 13302 (OXA 51, OXA 24)
# [9] = compound alone, A. baumannii NCTC 13304 (OXA 51, OXA 27), read-out: MIC
# [10] = A. baumannii NCTC 13304 (OXA 51, OXA 27)
SMILES,"MIC [1, 5]","MIC of Sulbactam in combination of compound [1, 6]","MIC of Cefepime in combination of compound [1, 6]","MIC [2, 7]","MIC of Sulbactam in combination of compound [2, 8]","MIC of Cefepime in combination of compound [2, 8]","MIC [3, 9]","MIC of Sulbactam in combination of compound [3, 10]","MIC of Cefepime in combination of compound [3, 10]",MIC [4],antibacterial activity against A. baumannii [4],MIC [1],MIC [2],MIC [3]
"CO/N=C(\C(=O)N[C@@H]1C(=O)N2C(C(=O)[O-])=C(C[N+]3(C)CCCC3)CS[C@H]12)c1csc(N)n1 [Cefepime, reference compound]",> 32 µg/mL,–,–,32 µg/mL,–,–,32 µg/mL,–,–,–,poor antibacterial activity,–,–,–
"O=C(NO[C@H]1CCNC1)[C@@H]1CC[C@@H]2CN1C(=O)N2OS(=O)(=O)O [Compound A, (2S,5R)-7-oxo-N-[(3S)-pyrrolidin-3-yloxy]-6-(sulfooxy)-1,6-diazabicyclo[3.2.1]octane-2-carboxamide]",> 128 µg/mL,4 µg/mL,16 µg/mL,> 128 µg/mL,8 µg/mL,16 µg/mL,> 128 µg/mL,8 µg/mL,16 µg/mL,> 128 µg/mL,–,–,–,–
"CC1(C)[C@H](C(=O)O)N2C(=O)C[C@H]2S1(=O)=O [Sulbactam, reference compound]",–,–,–,–,–,–,–,–,–,–,poor antibacterial activity,8 µg/mL,16 µg/mL,32 µg/mL

# Further lines, with some results ahead:
"MIC [1, 5]","MIC of Sulbactam in combination of compound [1, 6]","MIC of Cefepime in combination of compound [1, 6]","MIC [2, 7]","MIC of Sulbactam in combination of compound [2, 8]","MIC of Cefepime in combination of compound [2, 8]","MIC [3, 9]","MIC of Sulbactam in combination of compound [3, 10]","MIC of Cefepime in combination of compound [3, 10]",MIC [4],SMILES,antibacterial activity against A. baumannii [4],MIC [1],MIC [2],MIC [3]
> 128 µg/mL,4 µg/mL,32 µg/mL,> 128 µg/mL,8 µg/mL,16 µg/mL,> 128 µg/mL,8 µg/mL,8 µg/mL,> 128 µg/mL,"O=C(NOC[C@@H]1CCCCN1)[C@@H]1CC[C@@H]2CN1C(=O)N2OS(=O)(=O)O [Compound C, (2S,5R)-7-oxo-N-[(2S)-piperidine-2-ylmethyloxy]-6-(sulfooxy)-1,6-diazabicyclo[3.2.1]octane-2-carboxamide]",–,–,–,–
> 128 µg/mL,4 µg/mL,16 µg/mL,> 128 µg/mL,4 µg/mL,16 µg/mL,> 128 µg/mL,4 µg/mL,8 µg/mL,> 128 µg/mL,"O=C(NOC[C@@H]1CCCN1)[C@@H]1CC[C@@H]2CN1C(=O)N2OS(=O)(=O)O [Compound B, (2S,5R)-7-oxo-N-[(2S)-pyrrolidin-2-ylmethyloxy]-6-(sulfooxy)-1,6-diazabicyclo[3.2.1]octane-2-carboxamide]",–,–,–,–
32 µg/mL,–,–,> 32 µg/mL,–,–,> 32 µg/mL,–,–,–,"C[C@@H](O)[C@H]1C(=O)N2C(C(=O)O)=C(S[C@@H]3CN[C@H](C(=O)N(C)C)C3)[C@H](C)[C@H]12 [Meropenem, reference compound]",poor antibacterial activity,–,–,–
